# Data: US20100298348A1, “Method of Decreasing Ubiquitylated Protein Levels” (priority 2009, published 2010)
# Like-named read-outs stand apart in the source and are kept apart here.
# How the values were obtained:
# 3xTg-AD mice = assay: Morris Water Maze in 3xTg-AD mice; format: in vivo, mouse; details: 2 months; for Morris Water Maze crosses over former platform location, retention testing / Morris Water Maze latency, retention testing: 3xTg-AD mice, 5 mg/kg/day
# Method: 3xTg-AD mice of approximately one year of age were treated for 2 months with ST101. An average dose of 5 mg/kg/day was administered in drinking water (calculated dose, based on mean water consumption). Behavioral effects were tested by assessing performance on the Morris Water Maze. Biochemical effects were examined by measuring brain content of Aβ and APP by ELISA and Western Blot.
# Behavioral Effects: Performance of 3xTg-AD Mice in the Morris Water Maze (MWM), adapted from Roozendaal et al., Proc. Natl. Acad. Sci. U.S.A. 100: 1328-1333 (2003).
# The MWM tests both spatial memory (i.e. hippocampus dependent) and cued learning (i.e. non-hippocampal) in rodents. The maze is a circular tank filled with opaque water. Mice are placed in the water and must swim to find and escape onto a platform submerged 1.5 cm beneath the surface of the water. The time (in seconds) required to find the platform is recorded. Animals rely on visual cues in the room containing the tank in order to find the platform on successive challenges. Training was conducted daily for seven consecutive days.
# Retention of training was assessed twice, 24 and 72 hours after the final training trial. Animals were subjected to a 60-second free swim in the tank with the platform removed. Parameters measured included (1) latency: time required to reach the former platform location and (2) crosses: the number of times the animal swam across the former platform location.
# ADAM10 = assay: Western blot of ADAM10 in 3xTg-AD mouse brain; format: in vivo; details: 3xTg-AD mice ~12 months old, 5 mg/kg/day, 2 months
# Method: APP C-terminal fragments C99 and C83 are created by beta-secretase and alpha-secretase cleavage respectively. The reduction of both C99 and C83 induced by ST101 could therefore be due to reduction or inhibition of secretases. This hypothesis was tested using Western blots of brain extracts from 3xTg-AD mice from the initial experiment in 12-month-old animals treated with ST101 for 2 months. The only beta-secretase is BACE1 and the constitutive alpha-secretase is ADAM10.
# (§1) Western blots were probed with antibodies against BACE1 and ADAM10. FIG. 11A is a series of Western blots depicting levels of proADAM10, ADAM10, proBACE, BACE, Presenilinl and APP-CFTs in brain extracts from ST101 treated 3×TG-AD mice (S) versus control mice (C). C: control brain extract. S: ST101-treated brain extract. Animals were approximately 12 months old at sacrifice after 2 months of treatment with ST101 at 5 mg/kg/day.
# Presenilin 1 = assay: Western blot of Presenilin 1 in 3xTg-AD mouse brain; format: in vivo; details: 3xTg-AD mice ~12 months old, 5 mg/kg/day, 2 months
# Method: as §1
# tau = assay: Tau immunohistochemistry with H7 antibody in 3xTg-AD mice; format: in vivo, mouse
# Source text: The 3xTg-AD mouse model incorporates both pathological hallmarks of Alzheimer's disease: Aβ amyloid plaques and neurofibrillary tangles. Neurofibrillary tangles consist of accumulates of abnormally phosphorylated tau protein. In the 3xTg-AD mice pathological somato-dendritic accumulation of tau can be seen in immunohistochemistry as part of the disease model phenotype.
# ST101 effects on tau distribution and accumulation were explored in immunohistochemistry with H7 anti-tau antibody.
# huntingtin = assay: Western blot of pS13 huntingtin in 3xTg-AD mouse brain; format: in vivo; details: 3xTg-AD mice 12 months old, 5 mg/kg/day, 2 months; in the majority of cases
# Method: In a first pilot experiment to explore the effect of ST101 on proteins that accumulate in neurodegenerative diseases other than AD, brain extracts from ST101-treated 3xTg-AD mice (S) and control mice (C) mice were analyzed by Western blotting with an antibody directed against huntingtin, specifically against a phospho-epitope around serine 13 (pS13 huntingtin). These extracts are from the same mice as those used in Examples 15 and 16.
# Aβ1-40 = assay: Aβ in cynomolgus monkey brain after six-month chronic toxicity study; format: in vivo; details: juvenile cynomolgus monkeys, 10 mg/kg/day by naso-gastric tube, 6 months
# Method: Brain samples from cynomolgus monkeys were obtained at the conclusion of a six-month chronic toxicity study. The cynomolgus monkeys used in this study were juveniles of less than 4 years of age. ST101 was administered daily for 6 months by naso-gastric tube at 10 mg/kg/day (n=8 per group). Data was generated from 8 treated and 8 control animals. Levels of Aβ1-40 are shown in FIG. 9, which is a bar graph that depicts the effect of ST 101 on Aβ in brain tissue from cynomolgus monkeys. FIG. 9 depicts the amount of levels of Aβ1-40 in monkeys treated with ST 101, relative to control monkeys.
# APP = assay: Western blot of APP fragments in cynomolgus monkey hippocampus, 9-month study; format: in vivo; details: male cynomolgus monkeys, 9 months oral
# Method: Male cynomolgus monkeys were treated for 9 months with 0, 10, 30 or 100 mg/kg/day ST101 with once daily oral drug administration. Hippocampal brain samples were analyzed in Western blots and ELISAs for APP fragments and Aβ. […] Reductions in a ˜55-kDa fragment were also seen with treatment in these groups. Black outlines depict image level enhancement in Adobe Photoshop CS4, to better visualize weak signals. […] However, long exposures reveal the presence of the 17-kDa APP fragment only in treated monkeys (antibody CT20, Calbiochem). This fragment was not detected in either the 30 or 10 mg/kg/day ST101 groups. Error bars indicate SEM (standard error of the mean) and * indicates statistical significance versus control (p<0.05). (S: ST101-treated animals, versus C: control animals).
# ubiquitylated proteins = assay: Anti-ubiquitin Western blot of C57/B6 wildtype mouse brain; format: in vivo; details: C57/B6 wildtype mice, 5 mg/kg/day in drinking water, 2 months
# Method: Brain extracts from 2 month-old C57/B6 wildtype mice that had been treated with ST101 at 5/mg/kg/day in drinking water over 2 months were analyzed in Western blots using an anti-ubiquitin antibody (Dako no. Z0448).
# [1] = Chronic and reproductive toxicity studies; format: in vivo
# SAMP8 mouse = details: cited from earlier work
# SAM-P8 mice = details: vs control mice, cited from earlier work
smiles,measurement,setting,value
"O=C1N=C2C=CC=CN2C12Cc1ccccc1C2 [ST101, spiro(imidazo[1,2-a]pyridin-2(3H)-one-3,2′-indan)]",Morris Water Maze latency during training,"3xTg-AD mice; 3xTg-AD mice ~1 year old, 5 mg/kg/day in drinking water, successive days of 7-day training, vs controls",greater reductions in latency
same,"Morris Water Maze crosses over former platform location, retention testing",3xTg-AD mice; 24 hours after final training,increases in crosses
same,"Morris Water Maze latency, retention testing",3xTg-AD mice; 24 hours after final training,reductions in latency
same,"Morris Water Maze crosses over former platform location, retention testing",3xTg-AD mice; 72 hours after final training,increases in crosses
same,"Morris Water Maze latency, retention testing",3xTg-AD mice; 72 hours after final training,reductions in latency
same,ADAM-10 protein level,ADAM10,not significantly affected
same,pro-ADAM10 protein level,ADAM10,profound reduction
same,Presenilin 1 level,Presenilin 1,did not show significant changes
same,"neuronal loss, Hematoxylin/Eosin stained control sections",tau,no neuronal loss
same,pathological somato-dendritic tau staining,"tau; hippocampus, H7 anti-tau antibody",clear reduction
same,huntingtin protein levels (pS13 huntingtin),huntingtin,significantly reduced
same,Aβ1-40 levels in brain,Aβ1-40,reduction of Aβ1-40 in animals treated with ST101 that did not reach statistical significance
same,C83 APP fragment,APP; 10 mg/kg/day,no differences
same,C99 APP fragment,APP; 10 mg/kg/day,no differences
same,17-kDa APP fragment,"APP; 10 mg/kg/day, antibody CT20",not detected
same,C83 APP fragment,APP; 30 mg/kg/day,reductions
same,C99 APP fragment,APP; 30 mg/kg/day,reductions
same,~55-kDa APP fragment,APP; 30 mg/kg/day,Reductions
same,17-kDa APP fragment,"APP; 30 mg/kg/day, antibody CT20",not detected
same,C83 APP fragment,APP; 100 mg/kg/day,reductions
same,C99 APP fragment,APP; 100 mg/kg/day,reductions
same,~55-kDa APP fragment,APP; 100 mg/kg/day,Reductions
same,17-kDa APP fragment,"APP; 100 mg/kg/day, antibody CT20, long exposures",presence
same,ubiquitylated proteins,ubiquitylated proteins,modest reduction
same,toxicity in chronic toxicity studies,[1]; high doses,very little toxicity
same,toxicity in reproductive toxicity studies,"[1]; monkey, in vivo",very little toxicity
same,safety in rodent and monkey toxicity studies,"[1]; up to 6 months, doses up to approximately 100-fold higher than in 3xTg-AD mice",proven safe
same,accumulation of Aβ-like deposits in brain tissue,SAMP8 mouse,decreased
same,learning and memory functions,SAMP8 mouse,improvement
same,senescence scores,SAM-P8 mice; 16 weeks of treatment,significant improvement
same,senescence scores,SAM-P8 mice; 32 weeks of treatment,significant improvement
